The record followed here is patent US4521335A, “Aglycone and pseudo-aglycones of the AAD 216 antibiotics” (SmithKline Beckman Corporation, priority 1984, dated 1985).

In test [1] the test system is inoculum (ileal or cecal cannula filtrate). In words: swine in vitro model, growth promotant activity. Conditions: 5 hours, 37° C.; for GLU (% Control): glucose; for LAC (% Control): lactic acid; for LYS (% Control): lysine; for VFA (% Control): total volatile fatty acids.
Test [2] has as its system inoculum (rumen cannula filtrate). Put plainly: rumen in vitro model, growth promotant activity. To be noted: for GLU (% Control): glucose; for Propionate % (% Control): propionate as percentage of total VFA; for VFA (% Control): total volatile fatty acids; for LYS (% Control): lysine.

Consider Virginiamycin, for which, in test [1] (experiment I, 1.67 ppm), the “GLU (% Control)” value is 182 % Control, the “LAC (% Control)” value was determined as 70 % Control and the “LYS (% Control)” value was found to be 82 % Control. For the same molecule, in test [1] (experiment I, 16.67 ppm), the “GLU (% Control)” value stood at 191 % Control, the “LAC (% Control)” value stood at 76 % Control and the “LYS (% Control)” value is reported as 127 % Control. Moreover, in test [1] (experiment I, 166.67 ppm), the “GLU (% Control)” value is given as 197 % Control, the “LAC (% Control)” value came out at 81 % Control, the “LYS (% Control)” value is listed as 163 % Control and the “VFA (% Control)” value is recorded as 93 % Control. In test [1] (experiment II, 1.67 ppm), the “GLU (% Control)” value is on record as 837 % Control, the “LAC (% Control)” value came out at 21 % Control, the “LYS (% Control)” value is on record as 96 % Control and the “VFA (% Control)” value is 240 % Control.

Consider `CC[C@@]1([C@H]2O[C@H]([C@H]3O[C@@](O)(CO)[C@H](C)C[C@@H]3C)C[C@H]2C)CC[C@H]([C@@]2(C)CC[C@]3(C[C@H](O)[C@@H](C)[C@@H]([C@H](C)[C@H](OC)[C@@H](C)C(=O)O)O3)O2)O1` [Monensin Sodium], for which, in test [2] (experiment III, 0.5 ppm), the “GLU (% Control)” value is given as 11 % Control, the “Propionate % (% Control)” value is reported as 119 % Control and the “VFA (% Control)” value is listed as 94 % Control. Also, in test [2] (experiment III, 5.0 ppm), the “GLU (% Control)” value is 126 % Control, the “LYS (% Control)” value is on record as 141 % Control, the “Propionate % (% Control)” value worked out at 149 % Control and the “VFA (% Control)” value turned out to be 104 % Control. Also, in test [2] (experiment III, 50.0 ppm), the “GLU (% Control)” value is reported as 0 % Control, the “LYS (% Control)” value is on record as 147 % Control and the “Propionate % (% Control)” value is listed as 156 % Control. In test [2] (experiment IV, 5.0 ppm), the “LYS (% Control)” value was 595 % Control, the “Propionate % (% Control)” value is 161 % Control and the “VFA (% Control)” value came out at 106 % Control.

Turning to avoparcin, in test [1] (experiment II, 1.67 ppm), the “GLU (% Control)” value is recorded as 115 % Control, the “LAC (% Control)” value was 102 % Control and the “LYS (% Control)” value turned out to be 101 % Control.
